How the values were obtained:
[1] = target: CDK1/cyclin B (Homo sapiens, UniProt P06493); assay: Kinase assay CDK1/cyclin B (radioactive phosphate incorporation); assay type: biochemical; conditions: Ki calculated (Cheng-Prusoff) from experimentally determined IC50 and Km,ATP; read-out: Kinase Inhibition Ki CDK1 - cyclin B
Method in brief: (§1)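 Radiometric assays measured transfer of radioactive phosphate from ATP onto polypeptide substrates, using 2-4 μg recombinant active enzyme in buffer typically containing 25 mM β-glycerophosphate, 20 mM MOPS, 5 mM EGTA, 1 mM DTT and 1 mM Na3VO3 at pH 7.4. Reactions were stopped on ice, filtered on P81 or GF/C plates and washed with orthophosphoric acid. Incorporated radioactivity was scintillation-counted.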

[2] = target: T1, aurora A (Homo sapiens, UniProt O14965); assay: Kinase assay aurora A; assay type: biochemical; conditions: Ki calculated (Cheng-Prusoff) from experimentally determined IC50 and Km,ATP; read-out: Kinase Inhibition Ki Aurora A
T1 sequence (O14965 1-403): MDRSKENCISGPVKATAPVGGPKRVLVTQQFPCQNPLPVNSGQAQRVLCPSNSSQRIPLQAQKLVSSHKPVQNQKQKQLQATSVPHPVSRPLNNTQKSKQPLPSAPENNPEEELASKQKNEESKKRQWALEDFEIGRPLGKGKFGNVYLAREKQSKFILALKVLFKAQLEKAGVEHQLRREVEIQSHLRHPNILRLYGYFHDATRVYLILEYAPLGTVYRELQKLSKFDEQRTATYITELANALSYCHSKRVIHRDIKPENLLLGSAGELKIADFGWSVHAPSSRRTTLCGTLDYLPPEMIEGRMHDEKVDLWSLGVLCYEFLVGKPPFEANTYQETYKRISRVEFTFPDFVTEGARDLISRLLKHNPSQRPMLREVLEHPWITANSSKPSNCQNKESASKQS
Method in brief: as §1

[3] = target: CDK4/cyclin D1 (Homo sapiens, UniProt P11802); assay: Kinase assay CDK4/cyclin D1; assay type: biochemical; conditions: Ki calculated (Cheng-Prusoff) from experimentally determined IC50 and Km,ATP; read-out: Kinase Inhibition Ki CDK4 - cyclin D1
Method in brief: (§2)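 Radiometric filter assays used recombinant kinases or complexes (2-4 μg) with appropriate polypeptide substrates in pH 7.4 β-glycerophosphate/MOPS buffer. Reactions were started with 15 mM MgCl2 and 100 μM ATP containing [γ-32P]-ATP and run at 30° C. Phosphate incorporated into substrate was counted by scintillation after washing.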

[4] = target: CDK7/cyclin H (Homo sapiens, UniProt P50613); assay: Kinase assay CDK7/cyclin H; assay type: biochemical; conditions: Ki calculated (Cheng-Prusoff) from experimentally determined IC50 and Km,ATP; read-out: Kinase Inhibition Ki CDK7 - cyclin H
Method in brief: as §2

[5] = test system: glycogen synthase; assay: Glycogen synthase activation in rat myotubes; assay type: cell-based; conditions: for EC50: Myotube; for Max FI (% to LiCl): maximum fold induction normalised to 40 mM LiCl
Experimental: Rat myotubes were differentiated from L6.G8.C5 myoblasts, which were grown in DMEM, 10% FCS and antibiotics until confluent. The medium was then removed, cells washed with PBS and differentiation medium containing minimal essential media eagles (alpha modified) supplemented with 2% FCS and antibiotics. The cells were cultured for 3-4 days until >90% of cells had formed multinucleated myotubes. The differentiated cells were then used for determination of glycogen synthase activation after treatment with GSK3 inhibitor example compounds.
HEK293 cells, mouse adipocytes or rat myotubes were treated in 10-cm Petri dishes with different concentrations of GSK3 inhibitor example compounds for 90 minutes. At the end of the treatment period the cells were washed and scraped in ice cold PBS buffer supplemented with 20 mM NaF. The cells were pelleted by centrifugation and lysed in 300 μL buffer (50 mM.HEPES pH 7.5, 10 mM EDTA, 100 mM NaF, 5 mM DTT, protease inhibitor cocktail (Sigma)). After incubation for 30 min on ice the samples were cleared by centrifugation. The activity of glycogen synthase was determined in the soluble fraction at two different concentrations of […]—low (0.1 mM) and high (10 mM). The reaction was carried out for 30 min (buffer: 50 mM Tris pH 7.8, 20 mM EDTA, 25 mM NaF, 5 mM DTT). The reaction mixture (total volume of 90 μL) contained 1% glycogen, 0.3 mM UDP-glucose and 0.06 μCi ^14C-UDP-glucose. Reaction was stopped by transfer of 70 μL to a GFC 96-well filter plate, containing 140 μL 100% ethanol and the glycogen was allowed to precipitate for 1 h at 4° C. The wells were washed 2 times with 200 μL 66% ethanol and than allowed to dry. Subsequently, 100 μL of scintillation liquid was added, and plates were sealed and counted in a Packard Topcounter. Glycogen synthase activation was calculated as the ratio between the incorporation of labelled ^14C-UDP-glucose in glycogen at low and high concentration of […] (fractional velocity).
The ability of GSK3 inhibitors to activate glycogen synthase was determined in HEK293 cells, mouse adipocytes and rat myotubed. The compounds tested activated glycogen synthase in all three cellular systems with EC50 values in the sub-micromolar to low micromolar concentration range. Most of them exceeded the stimulation induced by 40 mM LiCl (the highest compound concentration used in the assay was 20 μM).

Chain of CDK4/cyclin D1 (P11802 whole entry, species assumed): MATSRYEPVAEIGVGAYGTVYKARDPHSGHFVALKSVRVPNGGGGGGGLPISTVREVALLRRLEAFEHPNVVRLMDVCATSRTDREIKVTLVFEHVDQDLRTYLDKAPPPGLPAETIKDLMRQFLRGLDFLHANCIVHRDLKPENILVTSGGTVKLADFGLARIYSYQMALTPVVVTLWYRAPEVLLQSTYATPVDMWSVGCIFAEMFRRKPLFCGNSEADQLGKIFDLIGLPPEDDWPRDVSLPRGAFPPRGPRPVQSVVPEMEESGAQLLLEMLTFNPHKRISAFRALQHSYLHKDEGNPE
Chain of CDK4/cyclin D1 (P24385 whole entry partner, species assumed): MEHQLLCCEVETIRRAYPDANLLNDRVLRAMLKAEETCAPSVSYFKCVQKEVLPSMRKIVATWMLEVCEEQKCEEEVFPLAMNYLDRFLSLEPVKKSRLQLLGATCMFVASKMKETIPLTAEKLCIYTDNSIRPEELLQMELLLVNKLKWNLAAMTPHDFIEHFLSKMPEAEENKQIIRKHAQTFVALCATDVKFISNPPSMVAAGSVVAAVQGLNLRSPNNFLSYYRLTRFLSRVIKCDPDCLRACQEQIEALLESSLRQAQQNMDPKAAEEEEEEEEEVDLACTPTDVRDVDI
Chain of CDK1/cyclin B (P06493 whole entry, species assumed): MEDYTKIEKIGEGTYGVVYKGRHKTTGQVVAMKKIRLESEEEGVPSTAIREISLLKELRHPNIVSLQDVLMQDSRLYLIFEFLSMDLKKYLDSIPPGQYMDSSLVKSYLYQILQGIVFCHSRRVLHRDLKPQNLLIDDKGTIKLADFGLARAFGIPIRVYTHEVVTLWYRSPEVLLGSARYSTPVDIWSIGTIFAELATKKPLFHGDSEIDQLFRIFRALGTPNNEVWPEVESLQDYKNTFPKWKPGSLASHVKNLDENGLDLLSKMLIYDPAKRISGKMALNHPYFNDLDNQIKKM
Chain of CDK1/cyclin B (P14635 whole entry partner, species assumed): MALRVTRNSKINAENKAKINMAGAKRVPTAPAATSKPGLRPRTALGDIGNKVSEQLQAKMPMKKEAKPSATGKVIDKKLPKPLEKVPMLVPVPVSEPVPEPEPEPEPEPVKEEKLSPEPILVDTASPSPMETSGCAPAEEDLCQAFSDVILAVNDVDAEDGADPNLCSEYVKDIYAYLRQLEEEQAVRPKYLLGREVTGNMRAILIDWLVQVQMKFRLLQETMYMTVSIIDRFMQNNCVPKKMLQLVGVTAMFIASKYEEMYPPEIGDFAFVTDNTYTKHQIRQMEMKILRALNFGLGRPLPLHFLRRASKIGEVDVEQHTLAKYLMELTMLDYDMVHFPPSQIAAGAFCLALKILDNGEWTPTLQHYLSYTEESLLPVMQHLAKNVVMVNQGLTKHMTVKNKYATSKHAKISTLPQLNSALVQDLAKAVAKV
Chain of CDK7/cyclin H (P50613 whole entry, species assumed): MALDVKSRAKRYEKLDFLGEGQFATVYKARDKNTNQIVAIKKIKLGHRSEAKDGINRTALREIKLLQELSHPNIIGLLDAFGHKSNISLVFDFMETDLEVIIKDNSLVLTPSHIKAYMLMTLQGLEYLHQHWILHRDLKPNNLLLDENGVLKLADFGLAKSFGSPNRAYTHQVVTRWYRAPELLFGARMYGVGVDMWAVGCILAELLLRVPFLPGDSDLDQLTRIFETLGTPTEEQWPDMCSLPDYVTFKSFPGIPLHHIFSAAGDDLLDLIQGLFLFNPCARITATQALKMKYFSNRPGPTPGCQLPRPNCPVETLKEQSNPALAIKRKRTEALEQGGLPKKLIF
Chain of CDK7/cyclin H (P51946 whole entry partner, species assumed): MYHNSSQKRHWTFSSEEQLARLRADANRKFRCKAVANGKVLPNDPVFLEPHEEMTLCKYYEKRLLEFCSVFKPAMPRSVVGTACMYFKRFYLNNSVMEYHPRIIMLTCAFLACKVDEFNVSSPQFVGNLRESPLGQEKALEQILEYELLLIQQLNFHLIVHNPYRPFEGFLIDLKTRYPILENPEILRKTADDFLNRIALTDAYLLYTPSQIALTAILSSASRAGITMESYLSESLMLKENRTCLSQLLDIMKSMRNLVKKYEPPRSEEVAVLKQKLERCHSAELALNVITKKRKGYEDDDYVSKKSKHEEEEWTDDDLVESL

Row | Structure (SMILES) | Ki [1] [nM] | Ki [2] [nM] | Ki [3] [nM] | Ki [4] [nM] | EC50 [5] [nM] | Max FI (% to LiCl) [5]
1 | CCNS(=O)(=O)c1cccc(Nc2nccc(-c3sc(=O)n(C)c3C)n2)c1 [Compound 62, 3-[4-(3,4-Dimethyl-2-oxo-2,3-dihydro-thiazol-5-yl)-pyrimidin-2-ylamino]-N-ethyl-benzenesulfonamide] | 430 | 410 | 330 | 1100 | 1610 ± 199 | 130 % to LiCl
2 | CC(=O)Nc1cc(Nc2nccc(-c3sc(=O)n(C)c3C)n2)cc(C(F)(F)F)c1 [Compound 64, N-{3-[4-(3,4-Dimethyl-2-oxo-2,3-dihydro-thiazol-5-yl)-pyrimidin-2-ylamino]-5-trifluoromethyl-phenyl}-acetamide] | 870 | 170 |  | 3900 | 1240 ± 610 | 152 % to LiCl
3 | COCCNS(=O)(=O)c1cccc(Nc2nccc(-c3sc(=O)n(C)c3C)n2)c1 [Compound 67, 3-[4-(3,4-Dimethyl-2-oxo-2,3-dihydro-thiazol-5-yl)-pyrimidin-2-ylamino]-N-(2-methoxy-ethyl)-benzenesulfonamide] |  | 390 | 1400 | 360 | 10500 ± 990 | 112 % to LiCl
4 | Cc1c(-c2ccnc(Nc3cccc(S(=O)(=O)NCCO)c3)n2)sc(=O)n1C [Compound 75, 3-[4-(3,4-Dimethyl-2-oxo-2,3-dihydro-thiazol-5-yl)-pyrimidin-2-ylamino]-N-(2-hydroxy-ethyl)-benzenesulfonamide] | 620 | 250 | 150 | 370 | 8490 ± 2480 | 157 % to LiCl
5 | CNc1cc(Nc2nccc(-c3sc(=O)n(C)c3C)n2)cc(C(F)(F)F)c1 [Compound 76, 3,4-Dimethyl-5-[2-(3-methylamino-5-trifluoromethyl-phenylamino)-pyrimidin-4-yl]-3H-thiazol-2-one] |  | 150 |  | 800 |  | 
